Where only a bound is given, the exact number is not on record here.

The test relates to IL-2 production in a Human Jurkat Cell Line. Briefly: Inhibition of IL-2 production in PHA-stimulated Jurkat cells (IL-2 ELISA). Format: cell-based. To be noted: Homo sapiens, Jurkat, 20 h, read-out: IC50 (concentration at which IL-2 release is inhibited by 50%). The method, then:
Jurkat cells (ATCC, Cat# TIB-152) were grown in RPMI1640 medium (ATCC, Cat# 30-2001) containing 10% of FBS (ATCC, Cat# 30-2020). For compound screening, Jurkat cells were plated in 96-well plates at a density of 0.5 million cells per well in RPMI1640 medium containing 1% of FBS. Then, various concentrations of each test compound were added to the cell plates followed by addition of PHA (Sigma, Cat# L-9017) at a final concentration of 2.5 μg/ml to stimulate IL-2 production. Cells were then incubated at 37° C. (+5% CO2) for 20 hours before ELISA assay. After 20 hours incubation, cell plates were centrifuged at 500-800 g for 5 minutes and the supernatants was collected for IL-2 detection using the human IL-2 ELISA kit purchased from Cell Sciences (Cat# 851.500.020). The ELISA assay for IL-2 production was done in 96-well plates using a protocol provided by Cell Sciences.
The IC50 (i.e., the concentration at which IL-2 release is inhibited by 50%) was determined and the results are shown in the Table. […] The designation “A” means an IC50 less than 0.010 μM; the designation B means an IC50 between 0.010 and 1.0 μM; and the designation “C” mean an IC50 greater than 1 μM.
On the technique in general: In an ELISA, binding on a coated surface is turned into a signal by an enzyme label.
For `N#CC(=Cc1ccc(-n2ccc(-c3ccccc3)n2)cc1)C(=O)c1cccc(F)c1F` [Compound 35, 2-(2,3-Difluoro-benzoyl)-3-[4-(3-phenyl-pyrazol-1-yl)-phenyl]-acrylonitrile], the IC50 is above 1000 nM.

In the case of `N#CC(=Cc1ccc(-n2ccc(C(F)(F)F)n2)cc1)C(=O)c1ccc(F)cc1F` [Compound 37, 2-(2,4-Difluoro-benzoyl)-3-[4-(3-trifluoromethyl-pyrazol-1-yl)-phenyl]-acrylonitrile], the IC50 is above 1000 nM. With `N#CC(=Cc1ccc(-n2ccc(C(F)(F)F)n2)cc1)C(=O)c1cccc(F)c1F` [Compound 38, 2-(2,3-Difluoro-benzoyl)-3-[4-(3-trifluoromethyl-pyrazol-1-yl)-phenyl]-acrylonitrile], the IC50 was above 1000 nM. Consider `Cc1cc(C(F)(F)F)n(-c2ccc(C=C(C#N)C(=O)c3ccc(F)cc3F)cc2)n1` [Compound 39, 2-(2,4-Difluoro-benzoyl)-3-[4-(3-methyl-5-trifluoromethyl-pyrazol-1-yl)-phenyl]-acrylonitrile], for which the IC50 was above 1000 nM. As to `Cc1cc(C(F)(F)F)n(-c2ccc(C=C(C#N)C(=O)c3cc(F)ccc3F)cc2)n1` [Compound 40, 2-(2,5-Difluoro-benzoyl)-3-[4-(3-methyl-5-trifluoromethyl-pyrazol-1-yl)-phenyl]-acrylonitrile], the IC50 is above 1000 nM. As to `N#CC(=Cc1ccc(-n2ccc(C(F)(F)F)n2)cc1)C(=O)c1cc(F)ccc1F` [Compound 41, 2-(2,5-Difluoro-benzoyl)-3-[4-(3-trifluoromethyl-pyrazol-1-yl)-phenyl]-acrylonitrile], the IC50 is above 1000 nM. Regarding `N#CC(=Cc1ccc(-n2ccc(C(F)(F)F)n2)cc1)c1cc(F)ccc1F` [Compound 42, 2-(2,5-Difluoro-phenyl)-3-[4-(3-trifluoromethyl-pyrazol-1-yl)-phenyl]-acrylonitrile], the IC50 is above 1000 nM. Take `N#CC(=Cc1cccc(-n2nc(C(F)(F)F)cc2C(F)(F)F)c1)c1cccc(F)c1F` [Compound 43, 3-[3-(3,5-Bis-trifluoromethyl-pyrazol-1-yl)-phenyl]-2-(2,3-difluoro-phenyl)-acrylonitrile]: the IC50 was above 1000 nM. Consider `N#CC(=Cc1cccc(-n2nc(C(F)(F)F)cc2C(F)(F)F)c1)c1cc(F)ccc1F` [Compound 44, 3-[3-(3,5-Bis-trifluoromethyl-pyrazol-1-yl)-phenyl]-2-(2,5-difluoro-phenyl)-acrylonitrile], for which the IC50 was above 1000 nM.

`N#CC(=Cc1ccc(-n2c(C(F)(F)F)nc3ccccc32)cc1)c1cccc(F)c1F` [Compound 45, 2-(2,3-Difluoro-phenyl)-3-[4-(2-trifluoromethyl-benzoimidazol-1-yl)-phenyl]-acrylonitrile]: the IC50 lay within 10 to 1000 nM. As to `N#CC(=Cc1ccc(-n2c(C(F)(F)F)nc3ccccc32)cc1)c1cc(F)ccc1F` [Compound 46, 2-(2,5-Difluoro-phenyl)-3-[4-(2-trifluoromethyl-benzoimidazol-1-yl)-phenyl]-acrylonitrile], the IC50 lay in the range of 10 to 1000 nM. As for `N#CC(=Cc1ccc(-n2cccn2)cc1)c1ccccc1F` [Compound 48, 2-(2-Fluoro-phenyl)-3-(4-pyrazol-1-yl-phenyl)-acrylonitrile], the IC50 is above 1000 nM.

Source of the values: patent US7705029B2 (Synta Pharmaceuticals Corp., priority 2004, dated 2010).
